Reference: patent US5013719A, “Method of effecting immunosuppression” (Merrell Dow Pharmaceuticals Inc., priority 1988, dated 1991)

Test system: cytolytic T lymphocyte induction (51Cr labeled P815 target cells)
Assay: Cytolytic T-lymphocyte induction in vivo (splenic cytolytic activity, 4-hour 51Cr release assay)
Set-up: species or system C57BL/6 mice
Details: DFMO 2% in drinking water from day 1; splenic CTL activity day 10; vs vehicle treated control
Description: Alloreactive cytolytic T-lymphocytes (CTL) are generated in vivo by injecting C57BL/6 mice intraperitoneally with allogenic P815 (H-2^d) cells (10^7) on day 0.
Splenic cytolytic activity, which represents a direct measurement of immune response, is assessed by a 4-hour ^51 Cr release assay as described by Bowlin et al., Cell. […] Effector cells are characterized as T-cells based on surface phenotype (Thy 1.2^+, Lyt 2.2^+, L3T4^-) and allo-specificity (H-^2 d) as described by Bowlin et al., Cell Immunnol.
^a C57BL/6 mice were injected with allogeneic P815 cells on day 0.
DFMO was administered continuously, starting on day 1, in drinking water.
^b Splenic cytolytic T lymphocyte activity was assessed on day 10
utilizing ^51 Cr labeled P815 target cells. Data is expressed as %
inhibition compared with vehicle treated control.

SMILES: NCCC[C@](N)(C(=O)O)C(F)F [DFMO, α-difluoromethylornithine]
- Cytolytic T Lymphocyte Induction % Inhibition (mean ± S.E., n = 3): 10 ± 0.5%
